Data on seven compounds can be found in patent publication US20160168130A1, “HETEROARYL SUBSTITUTED PYRAZOLES” (BAYER PHARMA AKTIENGESELLSCHAFT, priority 2013, published 2016).

The subject of test [1] is HeLa human cervical cancer cell line. As to the kind of experiment: Proliferation assay (crystal violet staining). The test is classed as cell-based. Conditions: 96 h, HeLa cells, 4 days incubation, median, read-out: Biological Assay 2: Proliferation assay (HeLa cell line) median IC50. The procedure: Cultivated tumor cells (cells were ordered from ATCC) were plated at a density of 3000 cells/well in a 96-well multititer plate in 200 μL of growth medium supplemented 10% fetal calf serum. After 24 hours, the cells of one plate (zero-point plate) were stained with crystal violet (see below), while the medium of the other plates was replaced by fresh culture medium (200 μL), to which the test substances were added in various concentrations (0 μM, as well as in the range of 0.001-10 μM; the final concentration of the solvent dimethyl sulfoxide was 0.5%). The cells were incubated for 4 days in the presence of test substances. Cell proliferation was determined by staining the cells with crystal violet: the cells were fixed by adding […] of an 11% glutaric aldehyde solution for 15 minutes at room temperature. After three washing cycles of the fixed cells with water, the plates were dried at room temperature. The cells were stained by adding 100 μL/measuring point of a 0.1% crystal violet solution (pH 3.0). After three washing cycles of the stained cells with water, the plates were dried at room temperature. The dye was dissolved by adding 100 μL/measuring point of a 10% acetic acid solution. Absorbtion was determined by photometry at a wavelength of 595 nm. The change of cell number, in percent, was calculated by normalization of the measured values to the absorbtion values of the zero-point plate(=0%) and the absorbtion of the untreated (0 μm) cells(=100%). The IC50 values were determined by means of a 4 parameter fit.

Test [2] has as its target T1, catalytic domain of human Bub1 (amino acids 704-1085) (Homo sapiens, UniProt O43683).
T1 construct: catalytic domain of human Bub1 (amino acids 704-1085); His6 (N); made in house; host or cells: Hi5 insect cells
The test can be described thus: Bub1 kinase assay (TR-FRET). It is filed as biochemical. Conditions: 10 μM ATP, 1 μM peptide substrate, median, read-out: Biological Assay 1: Bub1 kinase assay median IC50. From the text: Bub1-inhibitory activities of compounds described in the present invention were quantified using a time-resolved fluorescence energy transfer (TR-FRET) kinase assay which measures phosphorylation of the synthetic peptide Biotin-Ahx-VLLPKKSFAEPG (C-terminus in amide form), purchased from e.g. Biosyntan (Berlin, Germany) by the (recombinant) catalytic domain of human Bub1 (amino acids 704-1085), expressed in Hi5 insect cells with an N-terminal His6-tag and purified by affinity-(Ni-NTA) and size exclusion chromatography.
In a typical assay 11 different concentrations of each compound (0.1 nM, 0.33 nM, 1.1 nM, 3.8 nM, 13 nM, 44 nM, 0.15 μM, 0.51 μM, 1.7 μM, 5.9 μM and 20 μM) were tested in duplicate within the same microtiter plate. To this end, 100-fold concentrated compound solutions (in DMSO) were previously prepared by serial dilution (1:3.4) of 2 mM stocks in a clear low volume 384-well source microtiter plate (Greiner Bio-One, Frickenhausen, Germany), from which 50 nL of compounds were transferred into a black low volume test microtiter plate from the same supplier. Subsequently, 2 μL of Bub1 (the final concentration of Bub1 was adjusted depending on the activity of the enzyme lot in order to be within the linear dynamic range of the assay: typically ˜200 ng/mL were used) in aqueous assay buffer [50 mM Tris/HCl pH 7.5, 10 mM magnesium chloride (MgCl2), 200 mM potassium chloride (KCl), 1.0 mM dithiothreitol (DTT), 0.1 mM sodium ortho-vanadate, 1% (v/v) glycerol, 0.01% (w/v) bovine serum albumine (BSA), 0.005% (v/v) Trition X-100 (Sigma), 1× Complete EDTA-free protease inhibitor mixture (Roche)] were added to the compounds in the test plate and the mixture was incubated for 15 min at 22° C. to allow pre-equilibration of the putative enzyme-inhibitor complexes before the start of the kinase reaction, which was initiated by the addition of 3 μL 1.67-fold concentrated solution (in assay buffer) of adenosine-tri-phosphate (ATP, 10 μM final concentration) and peptide substrate (1 μM final concentration). The resulting mixture (5 μL final volume) was incubated at 22° C. during 60 min., and the reaction was stopped by the addition of 5 μL of an aqueous EDTA-solution (50 mM EDTA, in 100 mM HEPES pH 7.5 and 0.2% (w/v) bovine serum albumin) which also contained the TR-FRET detection reagents (0.2 μM streptavidin-XL665 [Cisbio Bioassays, Codolet, France] and 1 nM anti-phosho-Serine antibody [Merck Millipore, cat. #35-001] and 0.4 nM LANCE EU-W1024 labeled anti-mouse IgG antibody [Perkin-Elmer, product no. AD0077, alternatively a Terbium-cryptate-labeled anti-mouse IgG antibody from Cisbio Bioassays can be used]). The stopped reaction mixture was further incubated 1 h at 22° C. in order to allow the formation of complexes between peptides and detection reagents. Subsequently, the amount of product was evaluated by measurement of the resonance energy transfer from the Eu-chelate-antibody complex recognizing the Phosphoserine residue to the streptavidin-XL665 bound to the biotin moiety of the peptide. To this end, the fluorescence emissions at 620 nm and 665 nm after excitation at 330-350 nm were measured in a TR-FRET plate reader, e.g. a Rubystar or Pherastar (both from BMG Labtechnologies, Offenburg, Germany) or a Viewlux (Perkin-Elmer) and the ratio of the emissions (665 nm/622 nm) was taken as indicator for the amount of phosphorylated substrate. The data were normalised using two sets of (typically 32—) control wells for high—(=enzyme reaction without inhibitor=0% =Minimum inhibition) and low—(=all assay components without enzyme=100%=Maximum inhibition) Bub1 activity. IC50 values were calculated by fitting the normalized inhibition data to a 4-parameter logistic equation (Minimum, Maximum, IC50, Hill; Y=Max+(Min−Max)/(1+(X/IC50)Hill)).

pIC50: −log10 of the molar value. Some results are limits rather than exact numbers.

T1 sequence (O43683 704-1085): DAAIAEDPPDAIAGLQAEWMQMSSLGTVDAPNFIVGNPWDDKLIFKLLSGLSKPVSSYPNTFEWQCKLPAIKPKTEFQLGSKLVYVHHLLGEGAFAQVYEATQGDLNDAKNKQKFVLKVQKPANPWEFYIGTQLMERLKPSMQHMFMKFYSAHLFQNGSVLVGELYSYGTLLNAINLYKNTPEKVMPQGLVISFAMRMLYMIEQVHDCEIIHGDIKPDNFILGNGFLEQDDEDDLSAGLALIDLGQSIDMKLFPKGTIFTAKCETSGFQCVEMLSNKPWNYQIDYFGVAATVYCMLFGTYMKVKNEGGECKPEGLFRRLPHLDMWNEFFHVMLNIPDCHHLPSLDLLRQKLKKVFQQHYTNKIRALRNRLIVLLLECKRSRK

Take `CCOc1cc(F)c(Cn2nc(-c3nccc(Nc4ccncn4)n3)c(C)c2C2CC2)c(F)c1` [Example 2-1-3, 2-[5-cyclopropyl-1-(4-ethoxy-2,6-difluorobenzyl)-4-methyl-1H-pyrazol-3-yl]-N-(pyrimidin-4-yl)pyrimidin-4-amine]: the values for the pIC50 in test [1] and in test [2] were under 5.00 and 7.77, respectively.
`CCOc1cc(F)c(Cn2nc(-c3ncc(OC)c(Nc4ccncn4)n3)c(C)c2C2CC2)c(F)c1` [Example 2-1-2, 2-[5-cyclopropyl-1-(4-ethoxy-2,6-difluorobenzyl)-4-methyl-1H-pyrazol-3-yl]-5-methoxy-N-(pyrimidin-4-yl)pyrimidin-4-amine]: the pIC50 is 5.46 in test [1] and 7.80 in test [2].
In the same order, the values of `CCOc1cc(F)c(Cn2cc(Cl)c(-c3ncc(OC)c(Nc4ccncn4)n3)n2)c(F)c1` [Example 2-1-6, 2-[4-chloro-1-(4-ethoxy-2,6-difluorobenzyl)-1H-pyrazol-3-yl]-5-methoxy-N-(pyrimidin-4-yl)pyrimidin-4-amine] are under 5.00 and 7.00.
In the same order, the values of `COc1cnc(-c2cc(OC)n(Cc3ccccc3F)n2)nc1Nc1ccncn1` [Example 2-1-7, 2-[1-(2-fluorobenzyl)-5-methoxy-1H-pyrazol-3-yl]-5-methoxy-N-(pyrimidin-4-yl)pyrimidin-4-amine] are under 5.00 and 5.44.
The matching figures for `CCOc1cc(F)c(Cn2nc(-c3nccc(Nc4ccncn4)n3)c(Cl)c2C2CC2)c(F)c1` [Example 2-1-1, 2-[4-chloro-5-cyclopropyl-1-(4-ethoxy-2,6-difluorobenzyl)-1H-pyrazol-3-yl]-N-(pyrimidin-4-yl)pyrimidin-4-amine]: under 5.00 and 8.30.
Regarding `CCOc1cc(F)c(Cn2cc(C)c(-c3ncc(OC)c(Nc4ccncn4)n3)n2)c(F)c1` [Example 2-1-5, 2-[1-(4-ethoxy-2,6-difluorobenzyl)-4-methyl-1H-pyrazol-3-yl]-5-methoxy-N-(pyrimidin-4-yl)pyrimidin-4-amine], the values for the pIC50 in test [1] and in test [2] were under 5.00 and 7.07, respectively.
In the same order, the values of `CCOc1cc(F)c(Cn2nc(-c3ncc(OC)c(Nc4ccnnc4)n3)c(C)c2C2CC2)c(F)c1` [Example 2-1-4, N-{2-[5-cyclopropyl-1-(4-ethoxy-2,6-difluorobenzyl)-4-methyl-1H-pyrazol-3-yl]-5-methoxy-pyrimidin-4-yl}pyridazin-4-amine] are under 5.00 and 7.28.
